Laboratory results: patent US20070009537A1, “Antimicrobial activity of antibodies producing reactive oxygen species” (priority 2002, published 2007)
“Also recorded” adds a separate entry of the source. Read-outs that look alike come from different tables or passages of the source.

Key:
[1] = H2O2 production by UV irradiation of antibody/protein samples (Amplex Red assay); assay type: biochemical
Experimental: Aliquots (10 μL) were removed at timed intervals throughout the assay. H2O2 concentration was determined by the amplex red method. Each data point is reported as the mean±SEM of at least duplicate measurements: • polyclonal (poly) immunoglobulin (Ig) G, human; O poly-IgG, horse; □ poly-IgG, sheep; ∇ monoclonal (m) IgG (WD1-6G6), murine; Δ poly-IgM, human; ⋄ mIgG (92H2), murine; ▪ β-galactosidase (β-gal); ▴ chick ovalbumin (OVA); ▾ α-lactalbumin (α-lact); ♦ bovine serum albumin (BSA).
An aliquot (20 μl) from the protein solution was removed and added into a well of a 96-well microtiter plate (Costar) containing reaction buffer (80 μl). Working solution (100 μl/400 μM Amplex Red reagent 1/2 units/ml horseradish peroxidase) was then added, and the plate was incubated in the dark for 30 min. The fluorescence of the well components was then measured using a CytoFluor Multiwell Plate Reader (Series 4000, PerSeptive Biosystems, Framingham, Mass.; Ex/Em: 530/580 nm). The hydrogen peroxide concentration was determined using a standard curve. All experiments were run in duplicate, and the rate is quoted as the mean of at least two measurements.
The resultant solution was transferred to a glass, screw-cap vial and irradiated with UV light for 30 min. The concentration of H2O2 was determined after 30 min.

[2] = tested on: E. coli; assay: Bactericidal assay (CFU recovery), strain not specified; assay type: cell-based
Experimental: (§1) In a typical experiment, a culture of E. coli (in log phase growth, OD600=0.2-0.3) was repeatedly pelleted (3×3,500 rpm) and resuspended in PBS (pH 7.4). The PBS suspended cells were then added to glass vials and cooled to 4° C. Hematoporphyrin IX (40 μM) and antibody (20 μM) were added and the vials were either placed on a light box (visible light, 2.8 mW cm^−2) or in the dark at 4° C. and incubated for 1 h. Viability was determined by recovery of colony forming units (CFUs) on agar plates. Each experiment was performed at least in duplicate.
as §1, with “washed in PBS by pelleting” for “pelleted”, “rpm) the cells” for “rpm)”, “resuspending them” for “resuspended”

[3] = tested on: S. typhimurium; assay: Bactericidal assay (CFU recovery); assay type: cell-based, Salmonella typhimurium
Experimental: In a typical experiment, a culture of S. typhimurium in log phase growth at OD600=0.2-0.3 was repeatedly pelleted (3×3,500 rpm) and resuspended in PBS (pH 7.4). The PBS suspended cells were then added to glass vials and cooled to 4° C. hematoporphyrin IX solution (40 μM) and antibody (20 μM) were added. The vials were placed either on a light box (visible light, 2.8 mW cm^−2) or in the dark at 4° C. Incubation was for 1 hour. Viability was determined by recovery of colony forming units (CFUs) on agar plates. Each experiment was performed with at least duplicate samples.

[4] = Decomposition of O3 under aqueous conditions; assay type: physicochemical; conditions: PBS pH 7.4, 22° C., OD 260 nm
Experimental: The rate of decomposition of O3 under the aqueous conditions employed was measured by the following method. Ozone, produced by a passage of O2 through a Polymetrics ozonizer, was bubbled for 2 min through a phosphate buffered saline (PBS, pH 7.4) solution in a quartz cuvette (1 cm^2) at room temperature. The time-dependent change in optical density was then measured at 260 nm (ε=2,700 M^−1 cm^−1) for at least 5 half lives in a Hitachi u.v./vis spectrophotometer equipped with a thermostatted rack at 22° C. See Takeuchi et al., Anal. Chim. Acta. 230, 183 (1990). […] The sensitivity of the assay was limited by spectrophotometer accuracy to±0.1% (˜1 μM) of the OD at t=0.

[5] = tested on: E. coli O112a,c; assay type: cell-based; conditions: 40 μM, white light 2.7 mW cm^−2, 1 h, PBS pH 7.4, 4±1° C.
Experimental: as §1
as §1, with “washed in PBS by pelleting” for “pelleted”, “rpm) the cells” for “rpm)”, “resuspending them” for “resuspended”

[6] = tested on: E. coli XL1-blue; assay: Bactericidal assay (CFU recovery); assay type: cell-based
Experimental: as §1
as §1, with “washed in PBS by pelleting” for “pelleted”, “rpm) the cells” for “rpm)”, “resuspending them” for “resuspended”

Molecule: chick ovalbumin: chick-egg ovalbumin
- ability to reduce 1O2 (produce reactive oxygen species from singlet oxygen), panel of other proteins [1]: one of the most efficient proteins at reducing ^1O2

Molecule: bovine serum albumin: non-specific protein control
- bacterial killing ([2]; 20 μM): no bacterial killing
- bacterial killing ([3]; 20 μM): no bacterial killing

Molecule: superoxide dismutase: enzyme from Sigma, non-immunoglobulin control protein
- ability to reduce 1O2 (produce reactive oxygen species from singlet oxygen), panel of other proteins [1]: do not reduce ^1O2; also recorded: does not reside
- rate of hydrogen peroxide generation ([1]; superoxide dismutase irradiated in PBS): the same as irradiation of PBS alone

Molecule: β-galactosidase: most efficient non-immunoglobulin protein at generating H2O2
- H2O2 photo-production ([1]; near-UV irradiation, from its 39 Trp residues): 5.9 mol eq.

Molecule: O=[O+][O-] [Clone O3, ozone]
- half-life (t½) [4]: 66 s
- half-life (t½) ([4]; listed as ozone): 6 s

Molecule: N[C@@H](Cc1c[nH]c2ccccc12)C(=O)O [tryptophan]
- H2O2 production during photo-oxidation ([1]; near-UV irradiation, tryptophan 20 μM): ca. 0.5 mole equivalents

Molecule: CC1=C(CCC(=O)O)c2cc3[nH]c(cc4nc(cc5[nH]c(cc1n2)c(C)c5C(C)O)C(C)=C4C(C)O)c(C)c3CCC(=O)O (centres unmarked) [hematoporphyrin IX]
- bactericidal activity of sensitizer alone [5]: negligible bactericidal activity
- bactericidal activity of sensitizer alone ([6]; 40 μM, white light 2.7 mW cm^−2, 1 h, PBS pH 7.4, 4±1° C.): negligible bactericidal activity

Molecule: O=C(O)CN(CCN(CC(=O)O)CC(=O)O)CC(=O)O [EDTA]
- effect on survival of bacteria in the assay system ([2]; 2 mM): no effect on the survival of bacteria
- effect on survival of bacteria in the assay system ([3]; 2 mM): no effect on the survival of bacteria

Molecule: catalase
- effect on bactericidal activity of non-specific antibodies ([2]; catalase 13 mU/mL, 11 non-specific murine monoclonal antibodies): completely attenuated
- protection against the bactericidal activity of non-specific antibodies ([6]; FIG. 17A, catalase 13 mU/mL): complete protection

B1: RNase A: ribonuclease, non-immunoglobulin control protein (protein, UniProt P61823 27-150, looked up)
Ribonuclease pancreatic: KETAAAKFERQHMDSSTSAASSSNYCNQMMKSRNLTKDRCKPVNTFVHESLADVQAVCSQKNVACKNGQTNCYQSYSTMSITDCRETGSSKYPNCAYKTTQANKHIIVACEGNPYVPVHFDASV
- ability to reduce 1O2 (produce reactive oxygen species from singlet oxygen), panel of other proteins [1]: do not reduce ^1O2
- ability to reduce 1O2 (produce reactive oxygen species from singlet oxygen), panel of other proteins ([1]; listed as RNaseA): does not reside
